The source of these data is patent US20060178415A1, “Azole derivatives as antifungal agents” (priority 2002, published 2006).

What is called MIC is the least concentration at which growth counts as inhibited.

Test [1] concerns ergosterol P^450DM in A. fumigatus lysates. Conditions: cited from earlier work.
Test [2] deals with T1, ergosterol P^450DM in C. albicans lysates (Candida albicans, UniProt P10613).
T1 construct: host or cells: C. albicans lysate
Conditions: cited from earlier work.

For the next test, the system named is A. fum. Put plainly: In vitro antifungal MIC, NCCLS M38P broth method in RPMI 1640/MOPS pH 7. The test is classed as cell-based, Aspergillus fumigatus. Conditions: for MIC: Aspergillus fumigatus. The text has this: The in vitro evaluation of the antifungal activity of the compound of this invention (as shown in Table I) can be performed by determining the minimum inhibitory concentration (MIC) which is the concentration of the test compound in Rosewell Park Memorial Institute (RPMI) 1640 liquid medium buffered with 3-(Morpholino)propane sulfonic acid (MOPS) to pH 7, at which there is significant inhibition of the particular fungi. In practice the National Committee for Clinical Laboratory Standard (NCCLS) M27A document for Candida and Cryptococcus and M38P for Aspergillus was used to determine the MIC and readings recorded only when the Quality Control results fell into the acceptable range. After MIC results had been recorded, 100 μL from each of the well showing no growth was spread over Sabouraud Dextrose Agar (SDA) to determine the minimum fungicidal concentration (MFC).

Setting [3] is: A. fumigatus strain 1008, RPMI 1640, MOPS pH 7.
The mark [4] stands for this setting: A. fumigatus strain Si-l, RPMI 1640, MOPS pH 7.
[5] abbreviates: A. fumigatus strain 1008, RPMI 1640, MOPS pH 7, read-out: MIC (A. fum.) 1008.
[6] abbreviates: A. fumigatus strain Si-l, RPMI 1640, MOPS pH 7, read-out: MIC (A. fum.) Si-l.

In brackets after ≈: the same amount, converted by molar mass. Read-outs that look alike come from different tables or passages of the source.

T1 sequence (P10613 whole entry): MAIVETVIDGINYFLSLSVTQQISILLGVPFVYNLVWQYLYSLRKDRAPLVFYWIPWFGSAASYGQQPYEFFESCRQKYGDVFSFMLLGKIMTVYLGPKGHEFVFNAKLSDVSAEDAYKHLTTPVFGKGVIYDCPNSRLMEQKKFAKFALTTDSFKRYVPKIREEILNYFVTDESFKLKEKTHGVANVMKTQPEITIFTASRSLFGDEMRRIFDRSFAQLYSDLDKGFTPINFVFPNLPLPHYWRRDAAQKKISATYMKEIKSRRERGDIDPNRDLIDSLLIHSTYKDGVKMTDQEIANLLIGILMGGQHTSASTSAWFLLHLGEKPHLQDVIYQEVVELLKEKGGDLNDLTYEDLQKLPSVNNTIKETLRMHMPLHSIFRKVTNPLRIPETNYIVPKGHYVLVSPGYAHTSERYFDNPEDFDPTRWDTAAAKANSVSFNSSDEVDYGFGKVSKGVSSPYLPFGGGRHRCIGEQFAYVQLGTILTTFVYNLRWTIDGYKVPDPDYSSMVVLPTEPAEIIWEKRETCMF

As for `C[C@@H](c1ncncc1F)[C@](O)(Cn1cncn1)c1ccc(F)cc1F` [Voriconazole], the “fold greater inhibition of ergosterol P450DM compared to fluconazole” value in test [1] is reported as 160 fold; in test [2], 1.6 fold.

Consider `C[C@@H](n1ncn(-c2ccc(O)cc2)c1=S)[C@](O)(Cn1cncn1)c1ccc(F)cc1F` [Compound No. 41, 2-[(1R,2R)-2-(2,4-difluorophenyl)-2-hydroxy-1-methyl-3-(1,2,4-triazol-1-yl)propyl]-4-[4-hydroxyphenyl]-(2H,4H)-1,2,4-triazol-3-thione], for which the MIC in the test with A. fum. (pH 7, read-out: MIC (A. fum.) 1008) was above 16 µg/mL; with A. fum. (pH 7, read-out: MIC (A. fum.) Si-l) it was above 16 µg/mL.

As for `C[C@@H](N(NC(=O)OC(C)(C)C)C(=S)Nc1cccc2ccccc12)[C@](O)(Cn1cncn1)c1ccc(F)cc1F` [Compound No. 14], the “MIC (A. fum.) 1008” value against A. fum. (setting [3]) is above 16 µg/mL. Further, in the test with A. fum. (setting [4]), the “MIC (A. fum.) Si-l” value was above 16 µg/mL.

For `C[C@@H](N(NC(=O)OC(C)(C)C)C(=S)Nc1ccc(OC(F)(F)F)cc1)[C@](O)(Cn1cncn1)c1ccc(F)cc1F` [Compound No. 6, 1-t-Butoxycarbonyl-2-[(1R,2R)-2-(2,4-difluorophenyl)-2-hydroxy-1-methyl-3-(1H-1,2,4-triazol-1-yl)propyl]-4-[4-trifluoromethoxyphenyl]thiosemicarbazide], the MIC in the test on A. fum. (setting [5]) and with A. fum. (setting [6]) was 8 µg/mL (≈ 13.3 µM) each time.

`C[C@@H](N(N)C(=S)Nc1ccccc1)[C@](O)(Cn1cncn1)c1ccc(F)cc1F` [Compound No. 29, 2-[(1R,2R)-2-(2,4-difluorophenyl)-2-hydroxy-1-methyl-3-(1H-1,2,4-triazol-1-yl)propyl]-4-phenyl thiosemicarbazide]: the MIC in the test with A. fum. (setting [5]) and with A. fum. (setting [6]) was above 16 µg/mL in each case.

For `CCCCCCCCNC(=S)N(NC(=O)OC(C)(C)C)[C@H](C)[C@](O)(Cn1cncn1)c1ccc(F)cc1F` [Compound No. 15], in the test on A. fum. (setting [3]), the “MIC (A. fum.) 1008” value is above 16 µg/mL. Also, in the test on A. fum. (setting [4]), the “MIC (A. fum.) Si-l” value was above 16 µg/mL.

As to `C[C@@H](n1ncn(-c2ccc(OC(F)(F)F)cc2)c1=S)[C@](O)(Cn1cncn1)c1ccc(F)cc1F` [Compound No. 46, 2-[(1R,2R)-2-(2,4-Difluorophenyl)-2-hydroxy-1-methyl-3-(1H-1,2,4-triazol-1-yl)propyl]-4-[4-trifluoromethoxyphenyl]-(2H,4H)-1,2,4-triazol-3-thione], the MIC was determined as 2 µg/mL (≈ 3.9 µM) in the test on A. fum. (setting [5]) and 0.5 µg/mL (≈ 0.976 µM) in the test with A. fum. (setting [6]).

As to `C[C@@H](N(N)C(=S)Nc1ccc(OC(F)(F)F)cc1)[C@](O)(Cn1cncn1)c1ccc(F)cc1F` [Compound No. 34, 2-[(1R,2R)-2-(2,4-Difluorophenyl)-2-hydroxy-1-methyl-3-(1H-1,2,4-triazol-1-yl)propyl]-4-[4-trifluoromethoxyphenyl]thiosemicarbazide], the MIC with A. fum. (setting [5]) and with A. fum. (setting [6]) was 2 µg/mL (≈ 3.98 µM) each time.

Take `C[C@@H](N(NC(=O)OC(C)(C)C)C(=S)Nc1ccc(OC2CCCCO2)cc1)[C@](O)(Cn1cncn1)c1ccc(F)cc1F` (stereo partly drawn) [Compound No. 5, 1-t-Butoxycarbonyl-2-[(1R,2R)-2-(2,4-difluorophenyl)-2-hydroxy-1-methyl-3-(1H-1,2,4-triazol-1-yl)propyl]-4-[4-(tetrahydropyranyloxy)phenyl]thiosemicarbazide]: the MIC in the test on A. fum. (setting [5]) and in the test with A. fum. (setting [6]) was above 16 µg/mL throughout.

Regarding `C[C@@H](N(NC(=O)OC(C)(C)C)C(=S)Nc1ccc(-n2cnnn2)cc1)[C@](O)(Cn1cncn1)c1ccc(F)cc1F` [Compound No. 9, 1-t-Butoxycarbonyl-2-[(1R,2R)-2-(2,4-difluorophenyl)-2-hydroxy-1-methyl-3-(1H-1,2,4-triazol-1-yl)propyl]-4-[4-([1,2,3,4-tetrazol-1-yl])phenyl]thiosemicarbazide], the MIC with A. fum. (setting [5]) and in the test with A. fum. (setting [6]) was above 16 µg/mL in each case.

Consider `COC(=O)C(CCSC)n1cnn([C@H](C)[C@](O)(Cn2cncn2)c2ccc(F)cc2F)c1=S` (stereo partly drawn) [Compound No. 52, Methyl-2-methylthioethyl-2-[[(1R,2R)-2-(2,4-difluorophenyl)-2-hydroxy-1-methyl-3-(1H-1,2,4-triaolyl)propyl]-(2H,4H)-1,2,4-triazol-3-thion-4-yl]acetate], for which the “MIC (A. fum.) 1008” value in the test with A. fum. (setting [3]) was above 16 µg/mL. Besides, in the test on A. fum. (setting [4]), the “MIC (A. fum.) Si-l” value is above 16 µg/mL.

Regarding `COc1ccc(NC(=S)N(N)[C@H](C)[C@](O)(Cn2cncn2)c2ccc(F)cc2F)c(OC)c1` [Compound No. 32, 2-[(1R,2R)-2-(2,4-difluorophenyl)-2-hydroxy-1-methyl-3-(1H-1,2,4-triazol-1-yl)propyl]-4-[2,4-dimethoxyphenyl]thiosemicarbazide], the MIC in the test on A. fum. (setting [5]) and in the test on A. fum. (setting [6]) was above 16 µg/mL throughout.

Turning to `C[C@@H](N(NC(=O)OC(C)(C)C)C(=S)Nc1ccc(OCC(F)(F)C(F)F)cc1)[C@](O)(Cn1cncn1)c1ccc(F)cc1F` [Compound No. 7, 1-t-Butoxycarbonyl-2-[(1R,2R)-2-(2,4-difluorophenyl)-2-hydroxy-1-methyl-3-(1H-1,2,4-triazol-1-yl)propyl]-4-[4-(2,2,3,3-tetrafluoropropoxy)phenyl]thiosemicarbazide], the MIC with A. fum. (setting [5]) and in the test with A. fum. (setting [6]) was 4 µg/mL (≈ 6.17 µM) each time.

Consider `C[C@@H](n1ncn(-c2ccc(Cl)cn2)c1=S)[C@](O)(Cn1cncn1)c1ccc(F)cc1F` [Compound No. 55, 2-[(1R,2R)-2-(2,4-Difluorophenyl)-2-hydroxy-1-methyl-3-(1H-1,2,4-triazol-1-yl)propyl]-4-[3-chloropyridin-6-yl]-(2H,4H)-1,2,4-triazol-3-thione], for which the MIC was 4 µg/mL (≈ 8.62 µM) in the test with A. fum. (setting [5]) and 2 µg/mL (≈ 4.31 µM) in the test on A. fum. (setting [6]).
